Data taken from patent publication US20150197550A1 (UNIVERSITY OF ULSTER, priority 2012, published 2015).
Numbered stars: 1 amine (or outer) side, 2 acyl side, 3 side chain; on linkers, the order of the positions; unused ones are H or OH. Square brackets hold non-standard residues; d marks the D form. Side chains are listed from the residue outwards. Peptide text beside a SMILES is read from it. * marks the point of attachment. γGlu = O=C(O)[C@H](CCC(=O)[*:2])N[*:1]; Palmitoyl = CCCCCCCCCCCCCCCC(=O)*; Abu = CC[C@H](N)C(=O)O; Aib = CC(C)(N)C(=O)O

Assay: Stability on incubation with mouse plasma for 8 h (RP-HPLC peak height)
Type: in vitro ADME
Conditions: mouse plasma, 8 h, peak height vs time = 0 h; read-out: Percentage of degradation after 8h
Procedure: The samples were then separated on RP-HPLC and the peak height compared to the value at time=0 hours.

SMILES	metabolised at 8 h [%]
CC[C@H](C)[C@H](NC(=O)[C@H](Cc1ccccc1)NC(=O)[C@@H](NC(=O)CNC(=O)[C@H](CCC(=O)O)NC(=O)[C@@H](C)NC(=O)[C@@H](N)Cc1c[nH]cn1)[C@@H](C)O)C(=O)N[C@@H](CO)C(=O)N[C@@H](CC(=O)O)C(=O)N[C@@H](Cc1ccc(O)cc1)C(=O)N[C@@H](CO)C(=O)N[C@@H](CCCCN)C(=O)N[C@@H](Cc1ccc(O)cc1)C(=O)N[C@@H](CCSC)C(=O)N[C@@H](CC(=O)O)C(=O)N[C@@H](CC(N)=O)C(=O)N[C@@H](CCCNC(=N)N)C(=O)N[C@@H](CCCNC(=N)N)C(=O)N[C@@H](C)C(=O)N[C@@H](CCCCN)C(=O)N[C@@H](CC(=O)O)C(=O)N[C@@H](Cc1ccccc1)C(=O)N[C@H](C(=O)N[C@@H](CCC(N)=O)C(=O)N[C@@H](Cc1c[nH]c2ccccc12)C(=O)N[C@@H](CC(C)C)C(=O)N[C@@H](CCSC)C(=O)N[C@@H](CC(N)=O)C(=O)N[C@H](C(=O)O)[C@@H](C)O)C(C)C [(D-A^2 I^7) dogfish glucagon, (D-A^2I^7) dogfish glucagon] (H-H[dA]EGTFISDYSKYMDNRRAKDFVQWLMNT-OH; N-terminus and C-terminus assumed)	33

Same assay, conditions: mouse, plasma

SMILES	metabolised at 8 h [%]
CC[C@H](NC(=O)[C@@H](N)Cc1c[nH]cn1)C(=O)N[C@@H](CCC(=O)O)C(=O)NCC(=O)N[C@H](C(=O)N[C@@H](Cc1ccccc1)C(=O)N[C@H](C(=O)N[C@@H](CO)C(=O)N[C@@H](CC(=O)O)C(=O)N[C@@H](Cc1ccc(O)cc1)C(=O)N[C@@H](CO)C(=O)N[C@@H](CCCCN)C(=O)N[C@@H](Cc1ccc(O)cc1)C(=O)N[C@@H](CCSC)C(=O)N[C@@H](CC(=O)O)C(=O)N[C@@H](CC(N)=O)C(=O)N[C@@H](CCCNC(=N)N)C(=O)N[C@@H](CCCNC(=N)N)C(=O)N[C@@H](C)C(=O)N[C@@H](CCCCN)C(=O)N[C@@H](CC(=O)O)C(=O)N[C@@H](Cc1ccccc1)C(=O)N[C@H](C(=O)N[C@@H](CCC(N)=O)C(=O)N[C@@H](Cc1c[nH]c2ccccc12)C(=O)N[C@@H](CC(C)C)C(=O)N[C@@H](CCSC)C(=O)N[C@@H](CC(N)=O)C(=O)N[C@H](C(=O)O)[C@@H](C)O)C(C)C)[C@@H](C)O)[C@@H](C)O [(Abu^2) dogfish glucagon] (H-H[Abu]EGTFTSDYSKYMDNRRAKDFVQWLMNT-OH; N-terminus and C-terminus assumed)	58.4
CSCC[C@H](NC(=O)[C@H](Cc1ccc(O)cc1)NC(=O)[C@H](CCCCN)NC(=O)[C@H](CO)NC(=O)[C@H](Cc1ccc(O)cc1)NC(=O)[C@H](CC(=O)O)NC(=O)[C@H](CO)NC(=O)[C@@H](NC(=O)[C@H](Cc1ccccc1)NC(=O)[C@@H](NC(=O)CNC(=O)[C@H](CCC(=O)O)NC(=O)C(C)(C)NC(=O)[C@@H](N)Cc1c[nH]cn1)[C@@H](C)O)[C@@H](C)O)C(=O)N[C@@H](CC(=O)O)C(=O)N[C@@H](CC(N)=O)C(=O)N[C@@H](CCCNC(=N)N)C(=O)N[C@@H](CCCNC(=N)N)C(=O)N[C@@H](C)C(=O)N[C@@H](CCCCN)C(=O)N[C@@H](CC(=O)O)C(=O)N[C@@H](Cc1ccccc1)C(=O)N[C@H](C(=O)N[C@@H](CCC(N)=O)C(=O)N[C@@H](Cc1c[nH]c2ccccc12)C(=O)N[C@@H](CC(C)C)C(=O)N[C@@H](CCSC)C(=O)N[C@@H](CC(N)=O)C(=O)N[C@H](C(=O)O)[C@@H](C)O)C(C)C [(Aib^2) dogfish glucagon] (H-H[Aib]EGTFTSDYSKYMDNRRAKDFVQWLMNT-OH; N-terminus and C-terminus assumed)	47.4
CC[C@H](C)[C@H](NC(=O)[C@H](CO)NC(=O)[C@H](Cc1ccc(O)cc1)NC(=O)[C@H](CC(=O)O)NC(=O)[C@H](CO)NC(=O)[C@@H](NC(=O)[C@H](Cc1ccccc1)NC(=O)[C@@H](NC(=O)CNC(=O)[C@H](CCC(=O)O)NC(=O)[C@@H](C)NC(=O)[C@@H](N)Cc1c[nH]cn1)[C@@H](C)O)[C@@H](C)O)C(=O)N[C@@H](Cc1ccc(O)cc1)C(=O)N[C@@H](CCSC)C(=O)N[C@@H](CC(=O)O)C(=O)N[C@@H](CC(N)=O)C(=O)N[C@@H](CCCNC(=N)N)C(=O)N[C@@H](CCCNC(=N)N)C(=O)N[C@@H](C)C(=O)N[C@@H](CCCCN)C(=O)N[C@@H](CC(=O)O)C(=O)N[C@@H](Cc1ccccc1)C(=O)N[C@H](C(=O)N[C@@H](CCC(N)=O)C(=O)N[C@@H](Cc1c[nH]c2ccccc12)C(=O)N[C@@H](CC(C)C)C(=O)N[C@@H](CCSC)C(=O)N[C@@H](CC(N)=O)C(=O)N[C@H](C(=O)O)[C@@H](C)O)C(C)C [(D-A^2 I^12) dogfish glucagon, (D-A^2I^12) dogfish glucagon] (H-H[dA]EGTFTSDYSIYMDNRRAKDFVQWLMNT-OH; N-terminus and C-terminus assumed)	20.7
CCCCCCCCCCCCCCCC(=O)N[C@@H](CCC(=O)NCCCC[C@H](NC(=O)[C@@H](NC(=O)[C@H](CC(N)=O)NC(=O)[C@H](CCSC)NC(=O)[C@H](CC(C)C)NC(=O)[C@H](Cc1c[nH]c2ccccc12)NC(=O)[C@H](CCC(N)=O)NC(=O)[C@@H](NC(=O)[C@H](Cc1ccccc1)NC(=O)[C@H](CC(=O)O)NC(=O)[C@H](CCCCN)NC(=O)[C@H](C)NC(=O)[C@H](CCCNC(=N)N)NC(=O)[C@H](CCCNC(=N)N)NC(=O)[C@H](CC(N)=O)NC(=O)[C@H](CC(=O)O)NC(=O)[C@H](CCSC)NC(=O)[C@H](Cc1ccc(O)cc1)NC(=O)[C@H](CCCCN)NC(=O)[C@H](CO)NC(=O)[C@H](Cc1ccc(O)cc1)NC(=O)[C@H](CC(=O)O)NC(=O)[C@H](CO)NC(=O)[C@@H](NC(=O)[C@H](Cc1ccccc1)NC(=O)[C@@H](NC(=O)CNC(=O)[C@H](CCC(=O)O)NC(=O)[C@@H](C)NC(=O)[C@@H](N)Cc1c[nH]cn1)[C@@H](C)O)[C@@H](C)O)C(C)C)[C@@H](C)O)C(=O)O)C(=O)O [(D-A^2) dogfish glucagon Lys^30-γ-Glutamyl-PAL] (H-H[dA]EGTFTSDYSKYMDNRRAKDFVQWLMNTK([γGlu-Palmitoyl])-OH; N-terminus and C-terminus assumed)	11.6

The next lines start with the values.

metabolised at 8 h [%]	SMILES
33.9	CSCC[C@H](NC(=O)[C@H](C)NC(=O)[C@H](CCCCN)NC(=O)[C@H](CO)NC(=O)[C@H](Cc1ccc(O)cc1)NC(=O)[C@H](CC(=O)O)NC(=O)[C@H](CO)NC(=O)[C@@H](NC(=O)[C@H](Cc1ccccc1)NC(=O)[C@@H](NC(=O)CNC(=O)[C@H](CCC(=O)O)NC(=O)[C@@H](C)NC(=O)[C@@H](N)Cc1c[nH]cn1)[C@@H](C)O)[C@@H](C)O)C(=O)N[C@@H](CC(=O)O)C(=O)N[C@@H](CC(N)=O)C(=O)N[C@@H](CCCNC(=N)N)C(=O)N[C@@H](CCCNC(=N)N)C(=O)N[C@@H](C)C(=O)N[C@@H](CCCCN)C(=O)N[C@@H](CC(=O)O)C(=O)N[C@@H](Cc1ccccc1)C(=O)N[C@H](C(=O)N[C@@H](CCC(N)=O)C(=O)N[C@@H](Cc1c[nH]c2ccccc12)C(=O)N[C@@H](CC(C)C)C(=O)N[C@@H](CCSC)C(=O)N[C@@H](CC(N)=O)C(=O)N[C@H](C(=O)O)[C@@H](C)O)C(C)C [(D-A^2 A^13) dogfish glucagon, (D-A^2A^13) dogfish glucagon] (H-H[dA]EGTFTSDYSKAMDNRRAKDFVQWLMNT-OH; N-terminus and C-terminus assumed)
31.7	CSCC[C@H](NC(=O)[C@H](Cc1ccc(O)cc1)NC(=O)[C@H](CCCCN)NC(=O)[C@H](CO)NC(=O)[C@H](Cc1ccc(O)cc1)NC(=O)[C@H](CC(=O)O)NC(=O)[C@H](CO)NC(=O)[C@@H](NC(=O)[C@H](Cc1ccccc1)NC(=O)[C@@H](NC(=O)CNC(=O)[C@H](CCC(=O)O)NC(=O)[C@@H](C)NC(=O)[C@@H](N)Cc1c[nH]cn1)[C@@H](C)O)[C@@H](C)O)C(=O)N[C@@H](CC(=O)O)C(=O)N[C@@H](CC(N)=O)C(=O)N[C@@H](CCCNC(=N)N)C(=O)N[C@@H](CCCNC(=N)N)C(=O)N[C@@H](C)C(=O)N[C@@H](CCCCN)C(=O)N[C@H](CC(=O)O)C(=O)N[C@@H](Cc1ccccc1)C(=O)N[C@H](C(=O)N[C@@H](CCC(N)=O)C(=O)N[C@@H](Cc1c[nH]c2ccccc12)C(=O)N[C@@H](CC(C)C)C(=O)N[C@@H](CCSC)C(=O)N[C@@H](CC(N)=O)C(=O)N[C@H](C(=O)O)[C@@H](C)O)C(C)C [(D-A^2 D-D^21) dogfish glucagon, (D-A^2D-D^21) dogfish glucagon] (H-H[dA]EGTFTSDYSKYMDNRRAK[dD]FVQWLMNT-OH; N-terminus and C-terminus assumed)
26.5	CSCC[C@H](NC(=O)[C@H](CC(C)C)NC(=O)[C@H](Cc1c[nH]c2ccccc12)NC(=O)[C@H](CCC(N)=O)NC(=O)[C@@H](NC(=O)[C@H](Cc1ccccc1)NC(=O)[C@H](CC(=O)O)NC(=O)[C@H](CCCCN)NC(=O)[C@H](C)NC(=O)[C@H](CCCNC(=N)N)NC(=O)[C@H](CCCNC(=N)N)NC(=O)[C@H](CC(N)=O)NC(=O)[C@H](CC(=O)O)NC(=O)[C@H](CCSC)NC(=O)[C@@H](Cc1ccc(O)cc1)NC(=O)[C@H](CCCCN)NC(=O)[C@H](CO)NC(=O)[C@H](Cc1ccc(O)cc1)NC(=O)[C@H](CC(=O)O)NC(=O)[C@H](CO)NC(=O)[C@@H](NC(=O)[C@H](Cc1ccccc1)NC(=O)[C@@H](NC(=O)CNC(=O)[C@H](CCC(=O)O)NC(=O)[C@@H](C)NC(=O)[C@@H](N)Cc1c[nH]cn1)[C@@H](C)O)[C@@H](C)O)C(C)C)C(=O)N[C@@H](CC(N)=O)C(=O)N[C@H](C(=O)O)[C@@H](C)O [(D-A^2 D-Y^13) dogfish glucagon, (D-A^2D-Y^13) dogfish glucagon] (H-H[dA]EGTFTSDYSK[dY]MDNRRAKDFVQWLMNT-OH; N-terminus and C-terminus assumed)
